Reference: patent US11656230B2, “Method for predicting cancer sensitivity” (Eutropics Pharmaceuticals, Inc., priority 2013, dated 2023)

Key:
[1] = target: Bcl-XL/BIM-BH3 heterodimer (Homo sapiens, UniProt Q07817); assay: ELISA: inhibition of HSBXB binding to non-covalent Bcl-XL-GST/BIM-BH3 heterodimer by ABT-263; conditions: heterodimers formed with BIM peptide on Glutathione-coated ELISA plates; compound added after peptides and before monoclonal antibody; FIG. 15
Protocol: The compound was added to the ELISA plates after addition of peptides and before adding the monoclonal antibody. The Bib BH3 domain peptide was added as a negative control.
ABT-263 disrupts Bcl-2/Bcl-xL interactions with pro-death proteins (e.g., Bim), leading to the initiation of apoptosis within 2 hours post treatment (Tse et al., 2008).

[2] = target: Bcl-XL/BIM heterodimer in SKBR3 cells (Homo sapiens, UniProt Q07817); assay: Near-infrared imaging of HSBXB binding in paraformaldehyde fixed cells incubated with ABT-263; type: cell-based; conditions: different concentrations of ABT-263, FIG. 17
Text: IRDye 800CW goat anti-mouse antibody was used for detecting the heterodimer specific mouse monoclonal antibody and IRDye 800CW Goat anti-rabbit antibody was used to detect the commercial Bcl-XL rabbit monoclonal antibody. […] The detection system uses near-infrared (IR) fluorophores (670-1100 nm) that have a distinct advantage over visible dyes, in that very low background fluorescence at longer wavelengths provides an excellent signal-to-noise ratio. […] In this system antibodies labeled with IR dyes at different wavelengths are used for detection of multiple targets. The imager simultaneously detects two distinct wavelengths. A scanning optical assembly carries two laser diodes that generate excitation light at 680 and 780 nm, as well as two avalanche photodiodes, which detect emitted fluorescence at 720 and 820 nm. […] IRDye 800CW goat anti-mouse antibody was used for detecting the heterodimer specific mouse monoclonal antibody and IRDye 800CW Goat anti-rabbit antibody was used to detect the commercial Bcl-XL rabbit monoclonal antibody.

[3] = target: Bcl-xL/Bim heterodimer in JEKO-1 cells (Homo sapiens, UniProt Q07817); assay: Flow cytometry (FACS), intracellular staining with HSBXB antibody; type: cell-based; conditions: 10 uM, 3 hours on ice, clone 32 at 10 ug/ml, FIG. 18
Text: As a positive control we pretreated with the Bim BH3 peptide at a concentration that achieve saturated binding to the endogenous Bcl-XL. […] To enhance staining and to establish a positive control we added saturating amount of the Bim BH3 peptide to partially lysed cells. As a negative control we pretreated with BH3 mimetic compound, ABT 263 to displace Bim from Bcl-xL. In this experiment 5×10e6 JEKO 1 cells were suspended in Newmeyer buffer (Ryan et al Proc Natl Acad Sci USA 2010; 107:12895-900), digitonin (Sigma-Aldrich, St Louis Mo.) and treated with 100 uM Bim BH3 peptide; or ABT263 compound at 10 uM; or not treated. Cells were incubated on ice for 3 hours, and then washed and treated with clone 32 at 10 ug/ml for 20 minutes, washed again and stained with secondary goat anti-mouse IgG alexa-488. An IgG-2A isotype control was also prepared and run in parallel. Samples are analyzed on a FACS Canto II (BD Biosciences, San Jose Calif.) using the BD FACS Diva software.

[4] = system: mitochondrial outer membrane permeabilization (MOMP); assay: Mitochondrial profiling assay (MOMP); type: cell-based; conditions: mitochondrial profiling assay (unpublished data)
[5] = system: Bcl-2/Bcl-xL interactions with pro-death proteins (e.g., Bim); conditions: Tse et al., 2008; cited from earlier work

Sequence of Bcl-xL/Bim heterodimer in JEKO-1 cells (Q07817 whole entry, one chain of several): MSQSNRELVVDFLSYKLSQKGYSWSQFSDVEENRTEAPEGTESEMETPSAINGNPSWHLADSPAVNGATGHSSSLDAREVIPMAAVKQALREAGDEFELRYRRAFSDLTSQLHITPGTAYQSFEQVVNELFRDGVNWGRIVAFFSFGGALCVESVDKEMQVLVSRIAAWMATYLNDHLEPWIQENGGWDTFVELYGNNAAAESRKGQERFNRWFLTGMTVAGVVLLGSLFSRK
Sequence of Bcl-XL/BIM heterodimer in SKBR3 cells (Q07817 whole entry, one chain of several): as above
Sequence of Bcl-XL/BIM-BH3 heterodimer (Q07817 whole entry, the tested form may be a part, one chain of several): as the sequence (Q07817 whole entry, one chain of several) above

MOMP on displacement of Bim [4]: results in MOMP
Structure (SMILES): CC1(C)CCC(c2ccc(Cl)cc2)=C(CN2CCN(c3ccc(C(=O)NS(=O)(=O)c4ccc(N[C@H](CCN5CCOCC5)CSc5ccccc5)c(S(=O)(=O)C(F)(F)F)c4)cc3)CC2)C1 [ABT-263, Navitoclax]
inhibition of heterodimer antibody signal [1]: dose-dependent inhibition of heterodimer antibody signal | displacement of Bcl-xL bound BIM BH3 peptide detected by HSBXB [2]: displacement of the Bcl-xL bound BIM BH3 peptide is detected | displacement of Bim from Bcl-xL by flow cytometry using HSBXB antibody [3]: this displacement in measurable by flow cytometry | time to initiation of apoptosis post treatment [5]: ≤ 2 h
